# Measured values published in patent US5753631A, “Intercellular adhesion mediators” (Cytel Corporation, priority 1995, dated 1998).
# Like-named read-outs stand apart in the source and are kept apart here.
# Tests used:
# [1] = biological target: T1, P-Selectin (Homo sapiens, UniProt P16109); assay: Oligosaccharide/polysaccharide inhibition of neutrophil adhesion to thrombin activated platelets; assay type: cell-based
# T1 construct: endogenous in cells
# T1 sequence (P16109 42-830): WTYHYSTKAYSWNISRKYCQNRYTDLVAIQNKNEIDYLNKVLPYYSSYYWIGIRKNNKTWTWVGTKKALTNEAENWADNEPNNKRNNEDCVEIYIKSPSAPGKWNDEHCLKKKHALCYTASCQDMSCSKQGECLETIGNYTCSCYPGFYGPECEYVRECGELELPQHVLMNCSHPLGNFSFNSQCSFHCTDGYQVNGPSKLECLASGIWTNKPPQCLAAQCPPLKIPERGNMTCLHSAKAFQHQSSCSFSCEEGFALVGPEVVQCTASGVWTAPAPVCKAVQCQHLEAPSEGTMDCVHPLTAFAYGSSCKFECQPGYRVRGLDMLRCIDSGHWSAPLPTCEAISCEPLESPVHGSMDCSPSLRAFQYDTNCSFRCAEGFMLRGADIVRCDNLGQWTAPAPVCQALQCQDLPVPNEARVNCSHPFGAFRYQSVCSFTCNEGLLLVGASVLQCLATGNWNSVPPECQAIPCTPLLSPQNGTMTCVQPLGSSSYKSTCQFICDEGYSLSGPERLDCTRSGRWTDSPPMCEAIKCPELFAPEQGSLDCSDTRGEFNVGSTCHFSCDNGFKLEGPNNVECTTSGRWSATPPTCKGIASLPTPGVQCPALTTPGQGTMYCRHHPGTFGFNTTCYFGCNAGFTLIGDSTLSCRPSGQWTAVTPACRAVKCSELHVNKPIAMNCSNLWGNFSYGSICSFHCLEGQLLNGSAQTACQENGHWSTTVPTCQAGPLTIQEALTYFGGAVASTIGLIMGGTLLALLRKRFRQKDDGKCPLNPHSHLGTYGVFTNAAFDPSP
# Protocol: (§1) Briefly, platelets and neutrophils were isolated by the methods described above. Platelets were activated with thrombin and then incubated with dilutions of various oligosaccharides. Neutrophils were added, and the effect of the saccharides on the adhesion of neutrophils to activated platelets was determined.
# 1. Platelets were isolated as described above and were activated (2×10^8 /ml) by incubation for 20 min at room temperature with thrombin at a final concentration of 0.25 U/ml.
# 2. Neutrophils were isolated by layering heparinized blood over Mono-Poly Resolving Medium (Ficoll-Hypaque-Flow Laboratories), followed by centrifugation for 25 min at 2000 rpm and then, a further 25 min at 2500 rpm as described above.
# 3. For the assay, 20 μl of the platelet suspension (2×10^8 /ml) was placed in a microcentrifuge tube. An equal volume of the oligosaccharide preparations at concentrations from 200 μg/ml to 0.3 μg/ml, or of glycolipid-liposome preparations (prepared as described above), at concentrations from 2 μg/ml to 0.25 μg/ml, was added and the tubes were allowed to stand at room temperature for 20 min. Twenty μl of the neutrophil preparation (2×10^6 /ml) was then added and the tubes were allowed to stand for a further 20 min at room temperature.
# (§2) 4. Adhesion of activated platelets to the neutrophils was assessed microscopically. One hundred neutrophils were evaluated. They were scored as positive if 2 or more platelets were attached and negative if less than 2 platelets were bound. The percent of cells with 2 or more bound platelets was calculated.
# as §1, with “added” for “added,”
# Platelets were isolated as described above and were activated (2×10^8 /ml) by incubation for 20 min at room temperature with thrombin at a final concentration of 0.25 U/ml.
# Neutrophils were isolated by layering heparinized blood over Mono-Poly Resolving Medium (Ficoll-Hypaque, Flow Laboratories), followed by centrifugation for 25 min at […] and then, a further 25 min at 2500 rpm as described above.
# For the assay, 20 μl of the platelet suspension (2×10^8 /ml) was placed in an Eppendorf centrifuge tube. An equal volume of the oligosaccharide preparations at concentrations from 500 μg/ml to 2.0 μg/ml was added and the tubes were allowed to stand at room temperature for 20 min. Twenty […] of the neutrophil preparation (2×10^6 /ml) was then added and the tubes were allowed to stand for a further 20 min at room temperature.
# as §2, with “Adhesion” for “4. Adhesion”
# [2] = test system: histamine induced leukocyte rolling in rat mesenteric venules; assay: Histamine induced leukocyte rolling and adherence in rat mesenteric venules (intravital microscopy); assay type: in vivo, rat (male Sprague-Dawley)
# Protocol: Surgical procedure. Sixty-four male Sprague-Dawley rats (200-250 g) were maintained on a purified laboratory diet and fasted for 24 hours prior to the experiment. The animals were initially anesthetized with pentobarbital (65 mg/kg body weight), then a tracheotomy was performed to facilitate breathing during the experiment. The right carotid artery was cannulated and systemic arterial pressure was measured with a Statham (Oxnard, Calif.) P23A pressure transducer connected to the carotid artery cannula. Systemic blood pressure and heart rate were continuously recorded with a Grass physiologic recorder (Grass Instruments, Massachusetts). The left jugular vein was also cannulated for drug administration and blood sample collection. After a midline abdominal incision a segment of the mid-jejunum was exteriorized. All exposed tissue was moistened with saline-soaked gauze to minimize evaporation and dehydration.
# Intravital microscopy. Rats were placed in a supine position on an adjustable plexiglass microscope stage and the mesentery was draped over an optically clear coverslip that allowed for observation of a 2 cm^2 segment of tissue. The temperature of the pedestal was maintained at 37° C. with a constant temperature circulator (Fisher Scientific, model 80). A small rubber gasket (area=3.14 cm^2) was placed on the mesentery and the outside area of contact between the gasket and mesentery was sealed (to prevent leakage of superfusate from the ring) with a mixture of high vacuum grease (Dow Corning Corp., Midland, Mich.) and white petrolatum (E. Fougera & Co., Melville, N.Y.). Rectal and mesenteric temperatures were continuously monitored using an electrothermometer. The exposed bowel wall was covered with Saran Wrap (Dow Chemical Co., Indiana), and the mesenteric tissue within the gasket was suffused with warmed bicarbonate-buffered saline (BBS; pH 7.4) that was bubbled with a mixture of 5% O2; 5% CO2; 90% N2.
# An inverted microscope (Nikon Optiphoto, Japan) with a ×40 objective lens (Nikon Optiphoto, Japan) and a ×10 eyepiece was used to observe the mesenteric microcirculation. The mesentery was transilluminated with a 12 V-100 W direct current-stabilized light source. A video camera (Hitachi, VK-C150, Japan) mounted on the microscope projected the image onto a color monitor (Sony, PVM-2030, Japan), and the images were recorded using a video cassette recorder (Panasonic, NV8950, Japan). A video time-date generator (Panasonic, WJ810, Japan) projected the time, date, and stopwatch function onto the monitor.
# Single unbranched venules with diameters ranging between 25 μm and 35 μm and a length>150 μm were selected for study. Venular diameter (Dv) was measured either on- or off-line using a video image-shearing monitor (IPM, La Mesa, Calif.). The number of adherent leukocytes was determined off-line during playback of videotaped images. A leukocyte was considered to be adherent to venular endothelium if it remained stationary for a period equal to or greater than 30 seconds. Adherent cells were expressed as the number per 100 μm length of venule. The number of emigrated leukocytes was also determined off-line during playback of videotaped images. Ary interstitial leukocytes present in the mesentery at the onset of the experiment were subtracted from the total number of leukocytes that accumulated during the course of the experiment. Leukocyte emigration was expressed as the number per microscopic field (1.7×10^-2 mm^2) or 150 μm length of venule. Rolling leukocytes were defined as those white blood cells that moved at a velocity less than that of erythrocytes in the same stream. The flux of rolling leukocytes was determined as the number of rolling leukocytes which crossed a fixed point on the venule over a given period of time. Leukocyte rolling velocity was determined from the time required for a leukocyte to roll along a given distance of the venule.
# [3] = test system: CVF-induced acute lung injury; assay: Cobra venom factor (CVF)-induced acute lung injury in the rat; assay type: in vivo; conditions: in words; prior to CVF, 30 minutes
# Protocol: Groups of rats were pretreated with either vehicle, SLN-OH (0.6 mg/Kg), or with SLX-OH (0.6 mg/Kg) 5 minutes prior to administration of either CVF or PBS. Each bar represents the mean of 6 animals and vertical lines represent the standard error of the mean.
# Groups of rats were pretreated with either vehicle or Z at the indicated doses 5 minutes prior to administration of CVF or PBS. Each point represents the mean of 6 animals and vertical lines represent the standard error of the mean.
# The intravenous injection of CVF produces intravascular complement activation which results in lung injury, defined as an increase in neutrophil accumulation within the lung, an increase in pulmonary vascular permeability and in lung hemorrhage. It is likely that intravascular complement activation results in the generation of a wide range of inflammatory mediators. Of particular relevance to the studies described here is generation of the split fifth complement component, C5a, which can stimulate the release of histamine from circulating basophils and tissue mast cells. […] The expression of selectins, including P-selectin, is a necessary first step in the process of leukocyte adherence to vascular endothelium.
# Animals were dosed with different oligosaccharide preparations or phosphate buffered saline (PBS) five minutes before administration of cobra venom factor (20 units/Kg, i.v.). Included in this material was an aliquot of ^125 I-bovine serum albumin (0.5 μCi) and ^51 Cr labelled autologous red blood cells (0.5 μCi) for measuring plasma extravasation and hemorrhage respectively. Thirty minutes after administration of the cobra venom factor the animals were anesthetized with ketamine hydrochloride (10 mg/Kg) and exsanguinated via the posterior vena cava. The lung vasculature was then perfused through the right cardiac ventricle with 10 mL of PBS. The lungs were removed and the amount of radioactivity remaining within the tissue assessed with a gamma scintillation counter. Increased pulmonary vascular permeability was measured as the ratio of ^125 I in lung tissue compared with the amount present in 1 mL of venous blood obtained at the time of death. Lung hemorrhage was measured as the ratio of ^51 Cr in lung tissue compared with the amount present in 1 mL of venous blood obtained at the time of death. Neutrophil accumulation in lungs was determined by measuring the myeloperoxidase activity of lungs homogenized in PBS. Myeloperoxidase activity in lung supernatants was assayed by measuring the change in absorbance at 460 nm resulting from decomposition of H2 O2 in the presence of o-dianisidine
smiles,measurement,setting,value
"CC(=O)N[C@H]1C(O)O[C@H](CO)[C@@H](O[C@@H]2O[C@H](CO)[C@H](O)[C@H](O)[C@H]2O)[C@@H]1O[C@@H]1O[C@@H](C)[C@@H](O)[C@@H](O)[C@@H]1O (stereo partly shown) [Le^x, reference compound]",IC50,"[1]; Table 2, mean of three identical experiments, read-out: AMOUNT REQUIRED FOR 50% INHIBITION (converted)",43 µM
CC(=O)N[C@H]1[C@H](O[C@H]2[C@@H](O)[C@@H](CO)O[C@@H](O[C@H]3[C@H](O)[C@@H](O)C(OCC[Si](C)(C)C)O[C@@H]3CO)[C@@H]2O)O[C@H](CO)[C@@H](O[C@@H]2O[C@H](CO)[C@H](O)[C@H](O[C@]3(C(=O)O)C[C@H](O)[C@@H](NC(C)=O)[C@H]([C@H](O)[C@H](O)CO)O3)[C@H]2O)[C@@H]1O[C@@H]1O[C@@H](C)[C@@H](O)[C@@H](O)[C@@H]1O (stereo partly shown) [SLe^x Hexasaccharide],IC50,"[1]; read-out: AMOUNT REQUIRED FOR 50% INHIBITION, Table 6",6.42 µM
same,IC50,"[1]; read-out: amount for 50% inhibition of P-Selectin mediated binding of neutrophils to thrombin activated platelets, Table 6",6.42 µM
"CC(=O)N[C@H]1[C@H](O[C@H]2[C@@H](O)[C@@H](CO)O[C@@H](O[C@H]3[C@H](O)[C@@H](O)C(O)O[C@@H]3CO)[C@@H]2O)O[C@H](CO)[C@@H](O[C@@H]2O[C@H](CO)[C@H](O)[C@H](O)[C@H]2O)[C@@H]1O[C@@H]1O[C@@H](C)[C@@H](O)[C@@H](O)[C@@H]1O (stereo partly shown) [LNF III (Le^x), reference compound]",IC50,"[1]; Table 6, read-out: AMOUNT REQUIRED FOR 50% INHIBITION (converted)",41 µM
"CC(=O)N[C@H]1[C@H](O[C@H]2[C@@H](O)[C@@H](CO)O[C@@H](O[C@H]3[C@H](O)[C@@H](O)C(O)O[C@@H]3CO)[C@@H]2O)O[C@H](CO)[C@@H](O)[C@@H]1O[C@@H]1O[C@H](CO)[C@H](O)[C@H](O)[C@H]1O[C@@H]1O[C@@H](C)[C@@H](O)[C@@H](O)[C@@H]1O (stereo partly shown) [LNF I, reference compound]",AMOUNT REQUIRED FOR 50% INHIBITION,[1]; Table 6,No Inhibition
NCCc1c[nH]cn1 [histamine],Erythrocyte velocity,[2]; histamine 10^-5 M,1.8 ± 0.4 mm/sec
same,Leukocyte adherence,[2]; histamine 10^-5 M,7.2 ± 1.1 per 100 μm
same,Leukocyte emigration,[2]; histamine 10^-5 M,2.5 ± 0.9 per field
same,Venular diameter,[2]; histamine 10^-5 M,30 ± 1 μm
same,Wall shear rate,[2]; histamine 10^-5 M,303 ± 64 s⁻¹
same,"number of rolling leukocytes, fold increase",[2]; histamine 10^-5 M,10 -fold
same,"recruitment of rolling leukocytes, fold increase",[2]; histamine 10^-5 M,5 -fold
same,reduction of leukocyte rolling velocity,[2]; histamine 10^-5 M,50%
same,Erythrocyte velocity,[2]; histamine 10^-6 M,2.4 ± 0.2 mm/sec
same,Leukocyte adherence,[2]; histamine 10^-6 M,4.8 ± 0.7 per 100 μm
same,Leukocyte emigration,[2]; histamine 10^-6 M,2.0 ± 0.7 per field
same,Venular diameter,[2]; histamine 10^-6 M,30 ± 1 μm
same,Wall shear rate,[2]; histamine 10^-6 M,401 ± 91 s⁻¹
same,effect on number of adherent leukocytes,[2]; histamine 10^-6 M and 10^-5 M,Significant increases in the number of adherent leukocytes
same,Erythrocyte velocity,[2]; histamine 10^-7 M,2.8 ± 0.2 mm/sec
same,Leukocyte adherence,[2]; histamine 10^-7 M,2.8 ± 0.7 per 100 μm
same,Leukocyte emigration,[2]; histamine 10^-7 M,1.5 ± 0.7 per field
same,Venular diameter,[2]; histamine 10^-7 M,30 ± 1 μm
same,Wall shear rate,[2]; histamine 10^-7 M,476 ± 38 s⁻¹
"CC(=O)N[C@H]1[C@H]([C@H](O)[C@H](O)CO)O[C@@](O[C@H]2[C@@H](O)[C@@H](CO)O[C@@H](O[C@H]3[C@H](O)[C@@H](NC(C)=O)C(O)O[C@@H]3CO)[C@@H]2O)(C(=O)O)C[C@@H]1O (stereo partly shown) [SLN-OH, sialyl-N-acetyllactosamine, reference compound]","effect on CVF-induced permeability, hemorrhage, MPO / lung injury",[3],unaltered
